The source of these data is the Bradley open melting point set (2014).

Each structure is given as a SMILES string.

What is called melting point is the temperature of the solid-liquid transition. In turn, `Cc1ccc(C)c(C(=O)O)c1` [2,5-dimethylbenzoic acid] showed a melting point of 134 °C. The compound `c1cc2c3c(cccc3c1)CC2` [acenaphthene] returned a melting point of 95 °C.

The compound `O=C(O)c1c(Cl)cccc1Cl` [2,6-dichlorobenzoic_acid] came in with a melting point of 144 °C. Under `c1ccc(-c2cccc(-c3ccccc3)c2)cc1` [m-terphenyl] stands 87 °C.

Compound `CCNc1ccccc1` [n-ethylaniline] showed a melting point of -63 °C.

`CCC(C)(C)C` [2,2-dimethylbutane]: the melting point is -100 °C. For `Cc1ccccc1Cl` [o-chlorotoluene] the value was -35 °C. Under `O=C(CO)[C@@H](O)[C@@H](O)[C@H](O)CO` [D-tagatose] stands 135 °C. For `Nc1ccc(Br)cc1` [4-Bromoaniline] the value was 66 °C. For `O=C1CC(C(=O)O)c2ccccc21` (configuration not stated) [3-oxoindane-1-carboxylic acid], the melting point is 116 °C. For `CCOC(=O)c1ccc(N)cc1` [Ethyl 4-aminobenzoate] the value was 89 °C. For `Cc1ccc([N+](=O)[O-])c(O)c1` [5-methyl-2-nitrophenol] the value was 55 °C; for `CCCCCCCC/C=CCCCCCCCC(=O)O` [oleic acid], 14 °C. For `CC(C)CC(C)(C)C` [2,2,4-Trimethylpentane] the value was -107 °C; for `CC12CCCCC1CCC1C2CCC2(C)C1CCC2(O)C#Cc1ccccc1` (configuration not stated) [21-phenylpregn-20-yn-17-ol], 103 °C.

For the compound `COc1ccc(C(=O)Nc2ccc(-c3ccc4nn(-c5ccccc5)nc4c3)cc2)cc1`, the melting point was found to be 106 °C. `CC(C)CCCC(C)C1CCC2C3CCC45CCC(=O)C4C5(C)C3CCC12C` (configuration not stated) [1,5-cyclocholestan-2-one] came in with a melting point of 164 °C.

The compound `CCCC1COC(c2ccc(C#N)cc2)OC1` (configuration not stated) [2-(4-cyanophenyl)-5-n-propyl-1,3-dioxane] displayed a melting point of 58 °C. Under `O=C(O)CCC(=O)c1cccs1` [4-oxo-4-(2-thienyl)butyric acid] stands 119 °C. Compound `c1ccc2c(c1)[nH]c1ccccc12` [Carbazole] registered a melting point of 247 °C. For `O=Cc1cccc2c1CCOC2=O` [erythrocentaurin] the value was 140 °C; for `c1ccc(C2CCCCC2)cc1` [cyclohexylbenzene], 6 °C. For `O=Cc1ccc(Oc2ccccc2)cc1` [4-phenoxybenzaldehyde] the value was 25 °C; for `OB(O)c1cc(Cl)ccc1Cl` [2,5-dichlorobenzeneboronic acid], 213 °C; for `Oc1cc(Cl)cc(Cl)c1` [3,5-dichlorophenol], 68 °C. Under `O=C(Cl)c1ccc([N+](=O)[O-])cc1` [4-Nitrobenzoyl chloride] stands 75 °C.

Compound `Cc1c([N+](=O)[O-])cc[n+]([O-])c1C` [2,3-dimethyl-4-nitropyridine n-oxide] came in with a melting point of 93 °C.

In the case of `Cc1cccc2cc[nH]c12` [7-methylindole], the melting point is 84 °C. For `Nc1nc(N)c2nc(-c3ccccc3)c(N)nc2n1` [triamterene] the value was 316 °C; for `CC(CO)(CO)CO` [1,1,1-tris(hydroxymethyl)ethane], 190 °C.

Compound `O=C(CBr)c1c(F)c(F)c(F)c(F)c1F` [2-bromo-2',3',4',5',6'-pentafluoroacetophenone] had a melting point of 31 °C.

`Cc1ccc(C(=O)O)cc1C` [3,4-dimethylbenzoic acid] returned a melting point of 166 °C. Under `CCc1ccccc1Br` [1-bromo-2-ethylbenzene] stands -68 °C; under `CC(=O)Nc1nc(O)c2ncn(COCCOC(C)=O)c2n1` [N,O-Diacetylacyclovir], 204 °C. For `CC(=O)C(C)(C)C` [3,3-Dimethylbutan-2-one] the value was -52.5 °C.

Turning to `CCN1CCCC1CNC(=O)c1cc(S(N)(=O)=O)ccc1OC` (configuration not stated) [sulpiride], the melting point worked out at 179 °C. In turn, `CC(=O)Oc1ccc(C(=O)O)cc1` [4-acetoxybenzoic_acid] returned a melting point of 194 °C.

`CCCCC1=NC2(CCCC2)C(=O)N1Cc1ccc(-c2ccccc2-c2nnn[nH]2)cc1` [irbesartan]: the melting point was found to be 180 °C.

Turning to `O=C1CCSCC1` [tetrahydro-4h-thiopyran-4-one], the melting point was 62 °C. For `CN(C)C(=O)Nc1ccc(Cl)c(Cl)c1` [Diuron] the value was 159 °C; for `Nc1ccc(Cl)c(Cl)c1` [3,4-Dichloroaniline], 72 °C; for `Nc1ccc(S(=O)(=O)Nc2nccs2)cc1` [sulfathiazole], 202 °C. Under `CC(C)[C@@H](NC(=O)OCc1ccccc1)C(=O)O` [N-benzyloxycarbonyl-D-valine] stands 59 °C; under `COC(=O)[C@H](Cc1ccccc1)NC(=O)[C@@H](N)CC(=O)O` [Methyl L-alpha-aspartyl-L-phenylalaninate], 249 °C. For `COc1ccc2c3c1O[C@H]1[C@@H](O)C=C[C@H]4[C@@H](C2)N(C)CC[C@@]341` [Codeine] the value was 155 °C; for `CC(=O)OC1C(C)OC(OCc2ccccc2)C(OC(C)=O)C1OC(C)=O` (configuration not stated) [benzyl 2,3,4-tri-O-acetyl-6-deoxyhexopyranoside], 112 °C.

Regarding `O=C5\C=C4/C(C3CCC2(C(CCC2OC(=O)Cc1ccccc1)C3CC4)C)(C)CC5` (configuration not stated) [testosterone phenylacetate], the melting point worked out at 129 °C. For `COc1ccc(/C=C2\N=C(c3ccccc3)OC2=O)cc1OC` the value was 133 °C. For `COc1ccc(NS(=O)(=O)c2ccc(N)cc2)nn1` [sulfamethoxypyridazine] the value was 182 °C; for `COc1ccc(Br)cc1` [4-bromoanisole], 11 °C; for `CSCC[C@H](NC(=O)OC(C)(C)C)C(=O)O` [N-boc-L-methionine], 50 °C. Under `O=C(O)CCCCCCC[C@H](O)[C@H](O)CCCCCCO` [erythro-aleuritic acid] stands 99 °C; under `CC(C)CC(C)(C)C` [2,2,4-trimethylpentane], -107 °C.

For `C=C[C@H]1CN2CC[C@H]1C[C@@H]2[C@@H](O)c1ccnc2ccc(OC)cc12` [Quinidine], the melting point amounted to 174 °C. Under `COc1ccc(NC(=O)N(C)C)cc1Cl` [Metoxuron] stands 127 °C; under `CC(=O)C(C)C` [3-methyl-2-butanone], -92 °C; under `CCCOC1CCC2C3CC=C4CC5(CCC4(C)C3CCC12C)OCCO5` (configuration not stated), 209 °C. Under `OCCNc1ccccc1` [N-phenylethanolamine] stands -30 °C; under `CCC1(CC)C(=O)NC(=O)N(C)C1=O` [Metharbital], 150 °C; under `Clc1cccc2ccccc12` [1-chloronaphthalene], -20 °C. In the case of `NC(=O)c1ccccc1O` [o-hydroxybenzamide], the melting point was 142 °C. Under `N#CCCCCC#N` [adiponitrile] stands 2 °C; under `[O-][Cl+3]([O-])([O-])O` [Perchloric acid], -17 °C; under `CN(C)c1ccc(/N=N/c2ccccc2C(=O)O)cc1` [methyl red], 181 °C. For `FC(F)(F)C(F)(F)C(F)(F)C(F)(F)C(F)(F)C(F)(F)C(F)(F)C(F)(F)Br` [1-bromoperfluorooctane] the value was 6 °C; for `Cn1nc(-c2ccccc2)cc1N` [5-amino-1-methyl-3-phenyl-1h-pyrazole], 127 °C; for `Cc1cc(Cl)cc(C=O)c1O` [5-chloro-2-hydroxy-3-methylbenzaldehyde], 59 °C. Under `[2H]c1c([2H])c([2H])c(-c2c([2H])c([2H])c(-c3c([2H])c([2H])c([2H])c([2H])c3[2H])c([2H])c2[2H])c([2H])c1[2H]` [(~2~H_14_)-1,1':4',1''-Terphenyl] stands 213 °C; under `CC(Oc1cc(Cl)c(Cl)cc1Cl)C(=O)O` (configuration not stated) [2-(2,4,5-trichlorophenoxy)propionic acid], 178 °C; under `O=C(O)CCCCCC(=O)O` [Pimelic Acid], 106 °C. Consider `NC(=O)OCC(COC(N)=O)c1ccccc1` [felbamate], for which the melting point stood at 151 °C. For the compound `CCSc1ncccc1C(=O)Cl` [2-(ethylthio)nicotinoyl chloride], the melting point amounted to 51 °C. Turning to `CCN(CC)C(C)CN1c2ccccc2Sc2ccccc21` (configuration not stated) [ethopropazine], the melting point was found to be 53 °C. Under `Cc1c(F)ccc([N+](=O)[O-])c1C` [3-fluoro-1,2-dimethyl-6-nitrobenzene] stands 41 °C; under `Clc1ccccc1` [Chlorobenzene], -45 °C. For `O=C1c2ccccc2C(=O)N1CBr` [N-(bromomethyl)phthalimide] the value was 147 °C; for `COC(=O)c1cncc(Br)c1` [methyl 5-bromonicotinate], 97 °C; for `Cc1cc(Cl)c2ccccc2n1` [4-chloro-2-methylquinoline], 25 °C. For `COc1cc(/C=C/C(=O)NCCc2ccc(OCc3ccccc3)c(OC)c2)ccc1OCc1ccccc1` the value was 164 °C. As for `NS(=O)(=O)c1c(Cl)cc(Cl)cc1Cl` [2,4,6-trichlorobenzenesulfonamide], the melting point is 180 °C. For `CCCCCCCCCCCCCC(=O)O` [Myristic acid] the value was 55.1 °C. For `NC(=O)c1ccccc1O` [Salicylamide] the value was 140 °C. For `N#CCS(=O)(=O)c1ccc(C(F)(F)F)cc1` [[4-(trifluoromethyl)phenylsulfonyl]acetonitrile] the value was 144 °C. `Cc1ccc(C(C)C)cc1` [p-cymene] yielded a melting point of -68 °C. For `CC1(c2ccccc2B(O)O)OCCO1` [2-(2-methyl-1,3-dioxolan-2-yl)benzeneboronic acid] the value was 111 °C.

Consider `CC(C)(C)c1cc(C(=Nc2ccccc2)Nc2ccccc2)cc(C(C)(C)C)c1O` [3,5-Di-tert-butyl-4-hydroxy-N,N'-diphenyl-benzamidine], for which the melting point was 131 °C. Under `Oc1ccc(F)cc1` [4-Fluorophenol] stands 45.5 °C.
